According to patent US20250319096A1, “METHODS AND COMPOUNDS FOR TREATING INFLAMMATION” ([…] INCORPERATED, priority 2021, published 2025):
pIC50: −log10 of the molar value. Where two headings read alike, the source gives them in different places.

Experiments:
[1] = target: GABAA receptors; details: literature value, ref [37]; read-out: reported IC50 (GABAAR binding); cited from earlier work
[2] = target: GABAA receptors; assay: GABAA receptor binding, [3H]-flunitrazepam displacement on rat brain membranes; details: n=6, read-out: GABAAR binding (IC50)
Procedure: Rat brain membranes are prepared from frozen tissue that was thawed on ice, homogenized on ice in 10 volumes of cold lysis buffer (50 mM Tris HCl, pH 7.4, containing protease inhibitor cocktail from Roche) using a Polytron homogenizer (6 pulses and 10 seconds per pulse). The homogenate is centrifuged at 1,000×g for 10 min at 4° C. to obtain supernatant. The supernatant is then centrifuged at 40,000×g for 20 min, and then the resulting supernatant is decanted and replaced with the same ice-cold lysis buffer. Two or three additional rounds of homogenization-centrifugation are performed to ensure thorough homogenization and also to wash out endogenous ligands. The final pellet is resuspended in the same buffer and homogenized one last time. The rat brain suspension is diluted in buffer (50 mM Tris HCl, 2.5 mM CaCl2), pH 7.4), followed by the addition of [3H]-flunitrazepam (0.6-4.0 nM in DMSO) and PI320 or PI310 in DMSO at different concentrations to reach a final of volume of 125 ul per well. GABAAR subtypes that bind flunitrazepam consist of α1-3,5,6β1-3γ1-3/δ GABAARs. Relative expression of GABAARs in the brain consist of 43% α1β2γ2, 15% α2β3γ2+8% α2βγ1, 10% α3β3γ2, 6% α4βγ/δ, 4% α5β3γ2, and 4% α6β2γ2/δ. […]
Total binding and nonspecific binding are determined with reference compound clonazepam. […] Scintillation cocktail is then melted onto the microwave-dried filters on a hot plate and radioactivity counted in a Microbeta counter. The data (n=6) are analyzed by nonlinear regression.
GABAA receptor binding: Rat brain membranes were prepared from frozen tissue that was thawed on ice and homogenized on ice in 10 volumes of cold lysis buffer (50 mM Tris HCl, pH 7.4, containing protease inhibitor cocktail; Roche) using a Polytron homogenizer (6 pulses and 10 seconds per pulse). […] Total binding and nonspecific binding were determined with reference compound clonazepam. […] Scintillation cocktail was then melted onto the microwave-dried filters on a hot plate and radioactivity counted in a Microbeta counter. The data (n=6) were analyzed by nonlinear regression.

[3] = tested on: Swiss Webster mice with 3% Dextran sodium sulfate (DSS) induced ulcerative colitis; assay: Inflammatory bowel disease model, 3% DSS induced ulcerative colitis, bodyweight; assay type: in vivo; details: 100 mg/kg daily in peanut butter, 3% DSS water
Procedure: (§1) Ten (10) week old female Swiss Webster mice were offered 3% Dextran sodium sulfate (DSS) water to induce ulcerative colitis. Group 1 (n=8) received daily peanut butter (200 mg) and group 2 (n=8) received 100 mg/kg PI320 in peanut butter. The animals were weighted daily. See, FIGS. 1A and 1B.

[4] = tested on: colon MPO activity (Myeloperoxidase); assay: MPO assay on whole colon homogenates of DSS mice; assay type: in vivo; details: 100 mg/kg daily in peanut butter, 3% DSS water
Procedure: as §1
MPO assay: Whole colons were homogenized in phosphate buffer and centrifuge at 10,000 rpm at 4° C. from 10 min. The protein concentration supernatant was determined with a BCA assay and adjusted to 200 μg/ml with the addition of phosphate buffer. A daily standard solution for the hydrogen peroxide solution was prepared to a concentration of 0.0024% from a 35% v/v stock. The phosphate buffer that was prepared for the BCA assay was utilized for the dilution step of this assay. O-dianisidine dihydrogen chloride was prepared at a concentration of 167 μg/mL in phosphate buffer and sonicated for 30 min to dissolve in the buffer. 8 µL of protein solution was transferred to a 384 well plate containing 62 μL of the o-dianisidine solution. The reaction is initiated with the addition of 10 μL of the hydrogen peroxide solution prepared above. […] The product of this reaction shifts the absorbance to the λmax to 460 nm. The plate is then measured over a 15 min period in the plate reader in 30 sec intervals. […]

[5] = tested on: mice with INFγ/LPS induced lung inflammation; assay: Steroid resistant mouse asthma model (INFγ/LPS), airway hyperresponsiveness sRaw after methacholine; assay type: in vivo; details: for reduction of AHR (sRAW) versus vehicle control: nebulized 7.2 mg/kg, prior to second and third methacholine application, p≤0.005
Procedure: Female A/J mice are purchased from Jackson Laboratory (Bar Harbor, ME) and female Swiss Webster mice are purchased from Charles River Laboratory (Wilmington, MA). Animals are given ad libitum access to food and water. Test drugs are prepared for nebulization as follows: a 3.0 mg/ml solution of albuterol (Millipore Sigma) is prepared in phosphate buffered saline (137 mM NaCl, 2.7 mM KCl, 10 mM Na2HPO4, and 1.8 mM KH2PO4) and PI320 is prepared as 3.2 mg/ml solution in water with 0.17% Tween-20. Airway hyperresponsiveness measurements, sRaw, are obtained using a Buxco FinePointe Non-Invasive Airway Mechanics instrument (DSI, St. Paul, MN) as described previously (ACS Pharmacol Transl Sci 3, 1381-1390).
Efficacy of control drug (albuterol) and PI320 are determined by reduction of sRAW in mice compared to vehicle treated control mice. Here, mouse lung inflammation is induced with INFγ and bacterial lipopolysaccharide (LPS) via intratracheal installation. Elevated levels of IFNγ in the lung are observed for neutrophilic asthma patients, which respond poorly to steroid treatment (Eur Respir J 11, 312-316). One contributing factor is the impaired nuclear translocation of the liganded glucocorticoid receptor in pulmonary macrophages (Am J Respir Crit Care Med 191, 54-62). LPS simulates a microbial infection leading to macrophage-mediated inflammatory response (J Immunol 185, 4401-4409).
The tracheal installation of INFγ/LPS increases airway hyper-responsiveness to an inhaled challenge agent as measured by sRAW, which is based on the breathing volume and frequency. The challenge agent, methacholine, is administered three times over 24 minutes resulting in sRAW of approximately 8.0 cmH2O*sec.

[6] = tested on: Swiss Webster mice, MC903 challenge; assay: MC903 mouse AD model, ear thickness; assay type: in vivo; details: 2 nmol topically on both ears, third week after MC903, p≤0.05 / p≤0.01
Source text: An established mouse model of AD is used to evaluate the efficacy of PI320 in reducing ear thickness following MC903 challenge (for background on the model see: J Invest Dermatol 138, 2606-2616 [28]; Proc Natl Acad Sci USA, 103, 11736-11741 [29]; Sci Transl Med, 5, 170ra116 [30]; J Invest Dermatol, 138, 1555-1563 [31]). Ear thickness is used as a measure of inflammation caused by the chemical irritant.
Briefly, commercially sourced female Swiss Webster mice (Charles River Laboratory, Wilmington, MA) at approximately seven weeks of age are used. Sixteen mice are housed under 7:00 AM-7:00 PM 12 h light cycle and administered 2 nmol MC903 on each ear on Monday, Wednesday and Friday for two weeks. The ear thickness increased from 0.3 mm to 0.7 mm during that time. During the third week, a group of eight mice were administered 2 nmol of PI320 topically on both ears (10 ul of a 100 uM solution in ethanol on each side of both ears). The control group received vehicle ethanol. Ear thickness is measured using calipers. […] See, FIG. 4.

[7] = tested on: C57BL/6 mouse bladder strips with intact mucosa; assay: Functional analysis in overactive bladder model, carbachol-contracted bladder strips; set-up: species or system mice; details: 10 uM carbachol, cumulatively increasing concentrations 1-100 uM
Procedure: C57BL/6 female mice (12 weeks, Harlan UK, Ltd) are euthanized by cervical dislocation. The bladder is removed after a midline laparotomy, the neck and trigone region cut away and the dome laid out as a sheet after an anterior wall incision. Strips with intact mucosa (5-7 mm length, 1-2 mm diameter) are dissected and tied in a horizontal trough between a fixed hook and an isometric force transducer. Preparations are superfused (3 ml·min−1) at 36° C. with Tyrode's solution. PI320 or DMSO vehicle are added to the superfusate and their effects on tension measured.
Unstimulated preparations are allowed to equilibrate under tension (20 mN) until a stable base-line is recorded. The preparation is exposed to 10 µM carbachol and peak and steady-state tension recorded. In the continued presence of carbachol the preparation is also exposed to P1320 in cumulatively increasing concentrations (1, 3, 10, […], 100 uM) until a new steady-state is achieved at each concentration. For vehicle controls DMSO is added in rising concentrations (0.01, 0.03, 0.1, 0.3, 1.0% (v/v)) after a steady-state contraction is achieved with carbachol.
Data are mean±SD; differences between multiple data sets were tested with repeated measures two-way ANOVA and Tukey post hoc tests.

Structure (SMILES): C[C@H]1N=C(c2ccccc2F)c2cc(Br)ccc2-n2cnc(C(=O)O)c21 [MIDD0301, (R)-8-bromo-6-(2-fluorophenyl)-4-methyl-4H-benzo[f]imidazo[1,5-a][1,4]diazepine-3-carboxylic acid]
- pIC50 [1]: 7.14

Structure (SMILES): COCCOCCOCCOCCOCCNC(=O)c1ncn2c1[C@@H](C)N=C(c1ccccc1F)c1cc(Br)ccc1-2 [PI320, (R)-8-bromo-6-(2-fluorophenyl)-N-(2,5,8,11,14-pentaoxahexadecan-16-yl)-4-methyl-4H-benzo[f]imidazo[1,5-a][1,4]diazepine-3-carboxamide]
- pIC50 [2]: 6.62
- change of bodyweight in comparison to the initial weight ([3]; days 6 and 7): small drop in weight
- change of bodyweight ([3]; from day 2): regained weight on day 2
- colon Myeloperoxidase (MPO) level versus vehicle group [4]: greatly reduced
- reduction of methacholine induced airway hyper-responsiveness compared with albuterol ([5]; administered via inhalation): at least as effective as albuterol
- reduction of AHR (sRAW) versus vehicle control [5]: statistically significant reductions
- ear thickness versus vehicle control [6]: significantly reduces ear thickness
- contraction force of bladder strips versus DMSO controls [7]: concentration-dependent reduction of force

Structure (SMILES): COCCOCCNC(=O)C1N=CN2C3=C(CC(Br)C=C3)C(c3ccccc3F)=N[C@H](C)C12 (stereo partly drawn) [PI350]
- pIC50 [2]: 7.24

Structure (SMILES): COCCOCCOCCOCCNC(=O)C1N=CN2C3=C(CC(Br)C=C3)C(c3ccccc3F)=N[C@H](C)C12 (stereo partly drawn) [PI352]
- pIC50 [2]: 7.42

Structure (SMILES): CC(C)(C)NCC(O)c1ccc(O)c(CO)c1 (stereo not drawn) [albuterol, reference compound]
- reduction of AHR (sRAW) versus vehicle control [5]: statistically significant reductions
